Assay results as given in a melting point compilation (Tetko et al.; mined from patent text by program, amines drawn as free bases though some values may be those of a salt).

| SMILES | melting point [°C] |
| --- | --- |
| Cc1cc2c(-c3ccccc3)c(C(=O)O)oc(=O)c2cc1C | 265 to 268 |
| CC1(C)CC(=O)c2c(nc(Cc3ccc(Cl)cc3)c3[nH]c4ccccc4c23)C1 | 205 to 207 |
| CC(=O)NC(CCc1ccc(C=O)cc1)(COC(C)=O)COC(C)=O | 98 to 100 |
| CC[C@H]1c2ccc(C#N)n2-c2cc(F)c(F)cc2N1S(=O)(=O)c1ccc(O)cc1 | 191 to 192 |
| COC(=O)c1cc(C(=O)OC)n(-c2ccc(N)cc2C(=O)c2ccccc2)n1 | 171 to 172 |
| O=C(CN1CCC(Cc2ccccc2)CC1)Nc1ccc2[nH]c(=O)[nH]c2c1 | 270 |
| Nc1ncnc2sc(CCO)c(-c3ccc(NC(=O)Nc4cccc(C(F)(F)F)c4)cc3)c12 | 155 to 158 |
| CC(=O)OCCCC1Oc2c(C)c(C)c(OC(C)=O)c(C)c2S1 (stereo unspecified) | 78 to 79 |
| Cc1cc(C)n(-c2cncc(Nc3ccc(Cl)cc3)n2)n1 | 157 to 159 |
| CC1(C)OC(=O)Nc2ccc(-c3coc(C=O)c3)cc21 | 262 to 263 |
| CCOC(=O)c1ccc2c(c1)C(=O)c1nc3ccccc3c(=O)n1-2 | 270 to 273 |
| CC1(C)CCSc2cc(-c3cc(-c4ccc(C(=O)O)cc4)ccc3-c3ccccc3)ccc21 | 180 |
| CCCCCCNc1ccncc1 | 68 to 70 |
| CC(C(=O)O)c1ccc2nc3c(Cl)cc(Cl)cn3c(=O)c2c1 (stereo unspecified) | 241 |
| CC(=O)Nc1ccc2c(c1)C(=O)C(=O)N2CCN(C(C)C)C(C)C | 187 to 190 |
| Cc1ccc(NC(=O)c2cc(Cl)ccc2NCC2CCN(C3CCCCCC3)CC2)nc1 | 159 to 161 |
| CCC(=O)N[C@@H](C)C(=O)N1CCC[C@H]1C(=O)NC1CCCCC1 | 172 to 174 |
| Cc1cccc(NCCC#N)c1C | 65.5 to 67 |
| COc1c(C)cc(C(=O)O)cc1-c1ccccc1 | 165 to 168 |
| Cc1ccccc1C(=O)Nc1nc(-c2ccccc2)c(-c2ccc(=O)n(C(C)C)n2)s1 | 221 to 222 |
| O=c1c2cc(F)c(N3CCCC3)cc2n(-c2ccc(F)cc2F)c(=O)n1OCc1ccccc1 | 212 to 214 |
| CN(C)Cc1nnc(CO)n1-c1ccc(Cl)cc1C(=O)c1ccccc1Cl | 138 to 141 |
| CN(C)C(=O)c1cc2c(OC[C@H](O)CN3CCC(c4ccc5ccccc5c4)CC3)cccc2[nH]1 | 158 to 160 |
| Cc1nc(N2CCN(Cc3cccnc3)C2=O)sc1C(=O)NCc1ccccc1 | 110 to 113 |
| COc1nnc2c(=O)c3ccccc3ccn12 | 149 to 150 |
| CC1(C)C=C(c2ccccn2)c2ccccc2O1 | 80 to 82 |

| SMILES | melting point [°C] |
| --- | --- |
| CCCc1c(OCCCCCOc2ccc3nc(CCC(=O)O)ccc3c2CCC(=O)O)ccc2c1OCCC2=O | 123 to 128 |
| CN(CCSc1ccc2ncc([N+](=O)[O-])n2n1)c1ccnc(CO)c1Cl | 189 to 191 |
| Cc1ccc(Oc2nc3ccccc3o2)c(=S)n1C | 245 to 247 |
| CS(=O)(=O)OCCn1c(=NC(=O)C(F)(F)F)sc2cc(OC(F)(F)F)ccc21 | 145 |
| COC(=O)[C@H](Cc1ccc(-c2cn(C)c(=O)n(C)c2=O)cc1)NC(=O)c1c(C)cccc1Cl | 155 to 157 |
| CC(C)(C)C(=O)Oc1ccc(NCC2CCc3ccccc3C2)cc1 (stereo unspecified) | 75 to 77 |
| Nc1cccc(C2=NNC(=O)C3CC23)c1 (stereo unspecified) | 192 to 193 |
| CCCCCCCCCCCCCCCCSCC(CNS(=O)(=O)CCCI)n1nnnc1C (stereo unspecified) | 63.5 to 65.5 |
| CONC(=O)c1cc2c(Sc3ccc(C)cc3)cncc2s1 | 200 to 203 |
| COc1ccc(/C=C(\C#N)c2ccc([N+](=O)[O-])cc2)cc1OC1CCCC1 | 186 to 187 |
| COC(=O)c1cc2c(nc1C)C(=O)CCC2 | 180 to 181 |
| ClCCOc1ccc(/C=C/c2nc3ccccc3s2)cc1 | 92 to 94 |
| O=C(Nc1ccc(Br)cc1)OC1CN2CCC1CC2 (stereo unspecified) | 218 to 220 |
| Clc1ccc(CN2CCCCC2)cn1 | 48 |
| OCCSC1=NN(SCCO)CS1 | 80 |
| CNC(=O)C(C(F)F)C(C)(C)C=NO (stereo unspecified) | 53 to 58 |
| COC(=O)C(O)=CC(=O)c1cn(Cc2ccccc2)cc(Cc2ccccc2)c1=O | 148 to 150 |
| O=C(CCN1CCN(c2ccc(F)cc2)CC1)c1cnn2c1CCCC2 | 141 to 142 |
| Cc1cc(Sc2ccc([N+](=O)[O-])cc2)cc(Br)n1 | 124 to 126 |
| O=Cc1c(F)ccc(Cl)c1Cl | 55 to 57 |
| CCCCOCc1cc2ccccc2oc1=Nc1ccccc1 | 86 to 88 |
| O=C(CCl)c1cccn1Cc1ccccc1[N+](=O)[O-] | 112 to 114 |
| CC(C)(C)OC(=O)C1CCN(C(=O)OCc2ccccc2)N1 (stereo unspecified) | 55 to 57 |
| COc1cccc([C@H]2O[C@H](CC(=O)Nc3cccc(CCCCC(=O)O)c3)C(=O)N(CC(C)(C)CO)c3ccc(Cl)cc32)c1OC | 117 to 119 |
| O=C(C=Cc1cccc(Br)c1)Nc1ccc(CN2CCCCC2)cc1 | 144 to 145 |

Further lines, results first:

| melting point [°C] | SMILES |
| --- | --- |
| 185 to 187 | CC(C)(C)[C@H]1CC[C@H](N(Cc2ccc(C(=O)NC[C@H](O)C(=O)O)cc2)C(=O)Nc2cc(C(F)(F)F)cc(C(F)(F)F)c2)CC1 |
| 108 to 111 | O=C(O)C1CSC(c2ccccc2OCC2CCC(CO[N+](=O)[O-])CC2)N1 (stereo unspecified) |
| 95 to 96 | O=C1Cc2ccccc2C1(Cc1ccncc1)Cc1ccncc1 |
| 187 to 189 | C[Si](C)(C)C#Cc1c[nH]c(=O)[nH]c1=O |
| 138 to 140 | CCCCN1CCN(Cc2ccc(COc3cccc4c3CN(C3CCC(=O)NC3=O)C4=O)cc2)CC1=O (stereo unspecified) |
| 112 to 113 | Clc1c2ccccc2nc2occc12 |
| 195 to 197 | CN(CC(=O)O)C[C@H]1O[C@H](c2ccccc2Cl)c2cc(Cl)ccc2N(Cc2ccccc2)C1=O (relative stereo) |
| 164 to 165 | COCNC(=O)NC(=O)C(C#N)=NOC |
| 164 to 165 | Cc1ccc2nc(/C=C/c3ccccc3)n(-c3ccccn3)c2c1 |
| 218 to 219 | COc1ccc(C2Sc3cccc4cccc(c34)NC(=O)C2O)cc1 (stereo unspecified) |
| 121 to 122 | O=C(Cc1ccccc1)N1CCCSC1=C[N+](=O)[O-] |
| 207 to 208 | N#Cc1ccc(NCCc2nc3cc(Cl)ccc3c3nn(-c4ccccc4)cc23)nc1 |
| 97 to 99 | Cc1cc(C)c2c(n1)CC(c1ccccc1)CC2=O (stereo unspecified) |
| 208 to 210 | Cc1ccc(N2CCN(Cc3ccc4c(c3)OCC(=O)N4)CC2)cc1 |
| 96 to 98 | CCN1c2ncc(COc3cccc(C(N)=O)c3)cc2C(=O)N(C)c2ccc(Cl)nc21 |
| 270 to 272 | CC1CC(N2C(=O)c3ccccc3C2=O)C(=O)NC1=O (stereo unspecified) |
| 88 to 90 | CCCCC1(Cc2c(F)cccc2Cl)NC=C(C=O)N1 (stereo unspecified) |
| 214 to 215 | CN1C(=O)NC2(CCCCC2)C1=O |
| 75 to 76.5 | CC(C)(C)c1ccc(-c2nc(Cl)c3ccccc3n2)cc1 |
| 239 to 240 | Cc1nccc(N2CCN(C(=O)C3CCN(S(=O)(=O)c4ccc(Br)cc4)CC3)CC2)n1 |
| 92 to 93 | O=C1CCc2cc(Oc3ccccc3)ccc21 |
| 182 to 185 | CCC(=C(c1ccccc1)c1ccc(C=CC(N)=NO)cc1)c1ccccc1 |
| > 300 | COc1ccc(C(=O)NC(=O)Nc2cc3c(cc2F)/C(=C/c2[nH]c(C)c(CCC(=O)O)c2C)C(=O)N3)c(F)c1 |
| 308 | CN1CCC(P(=O)(O)O)(P(=O)(O)O)N=C1N |
| 115 to 116 | O=C(CCCCl)c1ccc2c(c1)Cc1cc(C(=O)CCCCl)ccc1S2 |

| melting point [°C] | SMILES |
| --- | --- |
| 164 to 165 | COc1ccc(C(=O)Nc2ccccc2)cc1NCc1ccccc1 |
| 96 to 97 | CCc1ncnc(N[C@H]2CC[C@@H](C=O)CC2)c1Cl |
| 47 to 49 | OCCOc1cccc2ocnc12 |
| 109 | COC(=O)c1ccc(Cl)c(Cn2nc(C(F)(F)F)n(C)c2=O)c1Cl |
| 236 to 239 | O=C1CCC(c2ccc3[nH]c(-c4ccccc4Cl)cc3c2)=NN1 |
| 163 to 165 | CC(=O)OCC1SC(N2CCc3ccccc32)C(OC(C)=O)C(OC(C)=O)C1OC(C)=O (stereo unspecified) |
| 249 to 252 | Cc1ccc(Nc2c(N)cc(C(=O)O)cc2S(N)(=O)=O)cc1 |
| 64 to 65 | CCCn1nnn(-c2cc(OS(C)(=O)=O)c(Cl)cc2Cl)c1=O |
| 164 to 165 | CCCCCCOc1cc2c(cc1/C(C)=C/C=C/C(C)=C/C(=O)O)C(C)(C)CCCS2(=O)=O |
| 192 | COc1cc(C(O)CS(C)(=O)=O)cc(OC)c1-n1cccc1 (stereo unspecified) |
| 50.5 to 51 | O=[N+]([O-])c1ccc(F)cc1OC1C=CCC1 (stereo unspecified) |
| 111 to 113 | Cc1ccc2nc(-c3ccccc3)nc(Cl)c2c1 |
| 93.9 to 94.6 | COC(=O)c1cc(CBr)cc(C2(C#N)CCC2)c1 |
| 244 to 247 | Cn1cc(C2=C(c3c4n(c5ccccc35)CCN(C(=S)n3ccnc3)C4)C(=O)NC2=O)c2ccccc21 |
| 128 to 131 | COc1cc(NC(C)CCCN)c2nccc(C)c2c1Oc1cccc(C(F)(F)F)c1 (stereo unspecified) |
| 197 to 199 | Nc1ccn(C2OC(CO)C(O)C2O)c(=O)c1Cl (stereo unspecified) |
| 108 to 110 | NC[C@@H]1CCc2cc(S(=O)(=O)Nc3ccc(-n4ccn(CCCC5CCCCC5)c4=O)cc3)ccc2O1 |
| 112 to 114 | Clc1ccc(-c2cc(C3CCN(Cc4ccccc4)CC3)no2)cc1 |
| 277 | CC1(C)CCC(C)(C)c2c(OCc3ccc(F)cc3)cc(C(=O)c3ccc4cc(C(=O)O)ccc4c3)cc21 |
| 168 | O=C(NC(=O)N1CCC(Cc2ccc(F)cc2F)CC1)c1ccc(O)cc1 |
| 75 to 77 | OC1(Cc2ccccc2F)CCN(Cc2ccccc2)C1 (stereo unspecified) |
| 135 to 137 | N#CC(=C1CCCN1)c1ccc(Cl)cc1 |
| 144 to 146 | Cc1[nH]c2ccccc2c1CCCN1CCC(c2noc3ccc(F)cc23)CC1 |
| 155 to 156 | CC(C)(C)c1cc(CCc2ccc(Cl)cc2NC(=O)NC2CCN(Cc3ccccc3)CC2)cc(C(C)(C)C)c1O |
| 163 to 166 | CS(=O)(=O)Nc1cc([C@@H](O)CNC2CCN(c3ccc(S(=O)(=O)N(CC(=O)O)CC(=O)O)cc3)CC2)ccc1O |
